Test results: patent publication US9079913B2, “Spiro-oxindole MDM2 antagonists” (The Regents of the University of Michigan, priority 2009, dated 2015)
Like-named read-outs stand apart in the source and are kept apart here.

What was measured:
[1] = target: recombinant human His-tagged MDM2 protein (residues 1-118) (Homo sapiens (Human), UniProt Q00987); assay: Fluorescence-polarization MDM2 binding assay;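 also: fluorescence polarization read after three hours of incubation in potassium phosphate buffer containing bovine gamma globulin and Triton X-100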
recombinant human His-tagged MDM2 protein (residues 1-118), sequence (Q00987 1-118): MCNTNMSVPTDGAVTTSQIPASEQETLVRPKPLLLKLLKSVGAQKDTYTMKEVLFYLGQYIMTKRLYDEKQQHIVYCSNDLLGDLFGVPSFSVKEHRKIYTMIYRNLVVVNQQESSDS
Experimental: The assay was performed in the buffer: 100 mM potassium phosphate, pH 7.5; 100 μg/mL bovine gamma globulin; 0.02% sodium azide, 0.01% Triton X-100) and the polarization values were measured after 3 h of incubation using an ULTRA READER (Tecan U.S. Inc., Research Triangle Park, N.C.). […] The Kd value was calculated using the equation: Kd value=IC50−L0/2.
The polarization values were measured after 3 h of incubation. […] Curve fitting was performed using [sequence] PRISM software (GraphPad Software, Inc., San Diego, Calif.). […] Compounds shown in Tables 19A-D as the free base were tested either as the free base or as the CF3CO2H (TFA) or HCl salt.

[2] = system: cancer cell lines with wild-type p53 / mutated or deleted p53 (ATCC); assay: Cell growth assay (WST-8), other cancer cell lines; type: cell-based; conditions: Homo sapiens
[3] = system: Isogenic HCT-116 colon cancer cell lines; assay: cells; type: cell-based; conditions: Homo sapiens;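 also: cells grown in 96-well plates in McCoy's 5A medium with 10% FBS, exposed to compound for 4 days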
Experimental: Cells were seeded in 96-well flat bottom cell culture plates at a density of 2−3×10^3 cells/well with compounds and incubated for 4 days.

[4] = Table 19A, FP binding assay, read-out: MDM2 IC50
[5] = PC-3, Table 19A, PC-3 cells, deleted p53, cell growth, read-out: PC-3 (deleted p53) IC50
[6] = HCT-116, read-out: HCT-116 (p53-/-) IC50, Table 19A, HCT-116 p53-/-, cell growth
[7] = HCT-116, read-out: HCT-116 (p53 wild-type) IC50, Table 19A, HCT-116 p53 wild-type, cell growth
[8] = LNCaP, Table 19A, LNCAP cells, p53 wild-type, cell growth, read-out: LNCAP (p53 wild-type) IC50
[9] = HCT-116, read-out: Cell growth inhibition using WST assay, HCT116 p53KO IC50, Table 19C, HCT116 p53KO
[10] = HCT-116, read-out: Cell growth inhibition using WST assay, HCT116 p53WT IC50, Table 19C, HCT116 p53WT
[11] = LNCaP, Table 19C, LNCaP cells, read-out: Cell growth inhibition using WST assay, LNCaP IC50
[12] = PC-3, Table 19C, PC3 cells, read-out: Cell growth inhibition using WST assay, PC3 IC50
[13] = Table 19C, read-out: Bidning affinities to MDM2 as determined using FP assay IC50

Compound: CC(C)(C)C[C@@H]1N[C@@H](C(=O)N[C@H]2C[C@@](C)(O)C2)[C@H](c2cccc(Cl)c2F)[C@]12C(=O)Nc1c2ccc(Cl)c1F
- IC50 [1, 4]: < 0.1 µM

Compound: CC(C)(C)C[C@H]1N[C@@H](C(=O)N[C@H]2C[C@@](C)(O)C2)[C@H](c2cccc(Cl)c2)[C@@]12C(=O)Nc1cc(F)c(F)cc12 [C035]
- IC50 [2, 5]: > 10 µM
- IC50 [1, 4]: < 3 µM

Compound: CC(C)(C)C[C@H]1N[C@@H](C(=O)NCC[C@H](O)C=O)[C@H](c2cccc(Cl)c2)[C@@]12C(=O)Nc1cc(Cl)c(F)cc12 [MI-219-M1 (a)]
- IC50 [3, 6]: > 10 µM
- IC50 [3, 7]: < 3 µM
- IC50 [2, 8]: < 3 µM
- IC50 [2, 5]: > 10 µM
- IC50 [1, 4]: < 1 µM

Compound: CC(C)(C)C[C@H]1N[C@@H](C(=O)NCCC(=O)CO)[C@H](c2cccc(Cl)c2)[C@@]12C(=O)Nc1cc(Cl)c(F)cc12 [MI-219-M1 (b)]
- IC50 [3, 6]: > 10 µM
- IC50 [3, 7]: < 3 µM
- IC50 [2, 8]: < 3 µM
- IC50 [2, 5]: > 10 µM
- IC50 [1, 4]: < 1 µM

Compound: CC(C)(C)C[C@H]1N[C@@H](C(=O)NCCCO)[C@H](c2cccc(Cl)c2)[C@@]12C(=O)Nc1cc(Cl)c(F)cc12 [MI-219-M8]
- IC50 ([3]; HCT-116, read-out: HCT116p53KO IC50, Table 19D, HCT116 p53KO): 18 ± 4.1 µM
- IC50 ([3]; HCT-116, read-out: HCT116p53WT IC50, Table 19D, HCT116 p53WT): 1.4 ± 0.9 µM
- IC50 ([2]; LNCaP, Table 19D, LNCaP cells, read-out: LNCaP IC50): 1.1 ± 0.5 µM
- IC50 ([2]; PC-3, Table 19D, PC3 cells, read-out: PC3 IC50): 9.2 ± 1.6 µM
- IC50 ([1]; Table 19D, read-out: MDM2 Binding Affinities IC50): < 1 µM

Compound: CC(C)(C)C[C@H]1N[C@@H](C(=O)NCC[C@H](O)CO)[C@H](Cc2ccccc2)[C@@]12C(=O)Nc1cc(Cl)c(F)cc12 [MI-319-23]
- IC50 [3, 9]: > 10 µM
- IC50 [3, 10]: > 10 µM
- IC50 [2, 11]: > 10 µM
- IC50 [2, 12]: > 10 µM
- IC50 [1, 13]: > 10 µM

Compound: CC(C)(C)C[C@H]1N[C@@H](C(=O)NC[C@H](O)[C@H](O)CO)[C@H](Cc2cccc(Cl)c2)[C@@]12C(=O)Nc1cc(Cl)c(F)cc12 [MI-319-24]
- IC50 [3, 9]: > 10 µM
- IC50 [3, 10]: < 5 µM
- IC50 [2, 11]: < 5 µM
- IC50 [2, 12]: > 10 µM
- IC50 [1, 13]: < 1 µM
